Patent US4555518A, “Fluoroalkoxy substituted benzimidazoles useful as gastric acid secretion inhibitors” (Byk Gulden Lomberg Chemische Fabrik GmbH, priority 1983, dated 1985)

Columns and labels:
[1] = system: gastric secretion (HCl) (rat stomach); assay: Shay rat: inhibition of gastric secretion (HCl) in the course of 4 h; type: in vivo; settings: for ED25 / ED50: Rattus norvegicus, po, perorally, rats; for ED25: dose reducing HCl secretion (4 h) by 25% vs control; for ED50: dose reducing HCl secretion (4 h) by 50% vs control; for Gastric secretion (rats): % inhibition of HCl secretion: after administration of the antiulcerous ED50, perorally, 4 h
Method: (§1) In these experiments, the compounds according to the invention were compared with prior art compounds (A-D) of European Patent Applications Nos. 0 005 129 and 0 074 341. The compounds investigated are numbered as follows: The influence of the compounds of the prior art and the compounds according to the invention on gastric lesion formation induced by pyloric ligature (4 h; so-called Shay rat) and oral administration of 100 mg/kg of acetylsalicyclic acid, and the gastric secretion (HCl) in the course of 4 h in rats is shown in the following table. | *ED25 and ED50 = dose which reduces the lesion index or the HCL | secretion(4h) in the rat stomach by 25 and, respectively, 50% in the | treated group in comparison with the control group. | **after administration of the antiulcerous ED50. The antiulcerogenic action was tested by the so-called Shay rat method: Ulcers are caused in rats which have been fasted for 24 hours (female, 180-200 g, 4 animals per cage on a high grid) by pyloric ligature (under diethyl ether anesthesia) and oral administration of 100 mg/10 ml/kg of acetylsalicylic acid. The substances to be tested are administered orally (10 ml/kg) one hour before the pyloric ligature. The wound is closed by means of Michel clamps. 4 hours thereafter, the animals are sacrificed under ether anesthesia by Atlas dislocation and resection of the stomach. The stomach is opened longitudinally and attached to a cork plate, after the amount of gastric juice secreted (volume) and later its HCl content (titration with sodium hydroxide solution) have first been determined; the number and size (=diameter) of the ulcers present are determined under a stereomicroscope at 10-fold magnification. The product of the degree of severity (according to the following points scale) and number of ulcers serves as the individual lesion index. The reduction in the average lesion index of each treated group compared with the control group (=100%) serves as a measure of the antiulcerogenic effect.

[2] = system: gastric lesion formation (rat stomach); assay: Shay rat: inhibition of gastric lesion formation induced by pyloric ligature and oral acetylsalicylic acid (protective effect on the stomach); type: in vivo; settings: perorally, rats, 1 h before pyloric ligature, 4 h, 100 mg/kg acetylsalicylic acid, dose reducing lesion index by 50% vs control
Method: as §1, with “group.” for “group. | **after administration of the antiulcerous ED50.”

COc1c(C)cnc(C[S+]([O-])c2nc3cc(OC(F)(F)F)ccc3[nH]2)c1C (stereo not drawn) [Serial No. 8, 2-[(4-methoxy-3,5-dimethyl-2-pyridyl)methylsulfinyl]-5-trifluoromethoxy-1H-benzimidazole]
ED25 [1]: 1 mg/kg | ED50 [1]: 1.5 mg/kg | Gastric secretion (rats): % inhibition of HCl secretion [1]: 20% | ED50 [2]: 0.4 mg/kg

COc1ccnc(C[S+]([O-])c2nc3cc(OC(F)(F)F)ccc3[nH]2)c1C (stereo not drawn) [Serial No. 3, 2-[(4-methoxy-3-methyl-2-pyridyl)methylsulfinyl]-5-trifluoromethoxy-1H-benzimidazole]
ED25 [1]: < 0.3 mg/kg | ED50 [1]: 0.4 mg/kg | Gastric secretion (rats): % inhibition of HCl secretion [1]: 32% | ED50 [2]: 0.3 mg/kg

COc1cc2[nH]c(SCc3nccc(OC)c3C)nc2cc1OC(F)F [Serial No. 17, 5-difluoromethoxy-6-methoxy-2-[(4-methoxy-3-methyl-2-pyridyl)methylthio]-1H-benzimidazole]
ED25 [1]: ~0.3 mg/kg | ED50 [1]: ~0.8 mg/kg | Gastric secretion (rats): % inhibition of HCl secretion [1]: ~ 25% | ED50 [2]: ~0.3 mg/kg

COc1ccnc(C[S+]([O-])c2nc3cc(OCC(F)(F)F)ccc3[nH]2)c1C (stereo not drawn) [Serial No. 10, 2-[(4-methoxy-3-methyl-2-pyridyl)methylsulfinyl]-5-(2,2,2-trifluoroethoxy)-1H-benzimidazole]
ED25 [1]: 0.5 mg/kg | ED50 [1]: 0.7 mg/kg | Gastric secretion (rats): % inhibition of HCl secretion [1]: 25% | ED50 [2]: 0.5 mg/kg

COc1ccnc(C[S+]([O-])c2nc3cc(OC(F)F)ccc3[nH]2)c1C (stereo not drawn) [Serial No. 12, 5-difluoromethoxy-2-[(4-methoxy-3-methyl-2-pyridyl)methylsulfinyl]-1H-benzimidazole]
ED25 [1]: ~0.3 mg/kg | ED50 [1]: ~0.6 mg/kg | Gastric secretion (rats): % inhibition of HCl secretion [1]: ~ 20% | ED50 [2]: ~0.3 mg/kg

COc1ccnc(CSc2nc3cc(OC(F)F)c(OC(F)F)cc3[nH]2)c1C [Serial No. 15, 5,6-bis(difluoromethoxy)-2-[(4-methoxy-3-methyl-2-pyridyl)methylthio]-1H-benzimidazole]
ED25 [1]: 0.5 mg/kg | ED50 [1]: 1 mg/kg | Gastric secretion (rats): % inhibition of HCl secretion [1]: 30% | ED50 [2]: 0.6 mg/kg

COc1ccnc(C[S+]([O-])c2nc3cc(OC(F)(F)C(F)F)ccc3[nH]2)c1 (stereo not drawn) [Serial No. 5, 2-[(4-methoxy-2-pyridyl)methylsulfinyl]-5-(1,1,2,2-tetrafluoroethoxy)-1H-benzimidazole]
ED25 [1]: 0.5 mg/kg | ED50 [1]: 1.2 mg/kg | Gastric secretion (rats): % inhibition of HCl secretion [1]: 33% | ED50 [2]: 0.7 mg/kg

COc1ccnc(C[S+]([O-])c2nc3cc(OC(F)F)c(OC(F)F)cc3[nH]2)c1C (stereo not drawn) [Serial No. 14, 5,6-bis(difluoromethoxy)-2-[(4-methoxy-3-methyl-2-pyridyl)methylsulfinyl]-1H-benzimidazole]
ED25 [1]: ~0.3 mg/kg | ED50 [1]: 0.6 mg/kg | Gastric secretion (rats): % inhibition of HCl secretion [1]: 20% | ED50 [2]: 0.2 mg/kg

COc1ccnc(C[S+]([O-])c2nc3cc(OC(F)(F)Cl)ccc3[nH]2)c1 (stereo not drawn) [Serial No. 18, 5-chlorodifluoromethoxy-2-[(4-methoxy-2-pyridyl)methylsulfinyl]-1H-benzimidazole]
ED25 [1]: < 1 mg/kg | ED50 [1]: 1.8 mg/kg | Gastric secretion (rats): % inhibition of HCl secretion [1]: 35% | ED50 [2]: 1.3 mg/kg

COc1ccnc(CSc2nc3cc(OC(F)(F)F)ccc3[nH]2)c1C [Serial No. 2, 2-[(4-methoxy-3-methyl-2-pyridyl)methylthio]-5-trifluoromethoxy-1H-benzimidazole]
ED25 [1]: 0.35 mg/kg | ED50 [1]: 0.5 mg/kg | Gastric secretion (rats): % inhibition of HCl secretion [1]: 20% | ED50 [2]: 0.3 mg/kg

COc1ccc2[nH]c(SCc3ncc(C)c(OC)c3C)nc2c1 [Serial No. A, 5-methoxy-2-[(4-methoxy-3,5-dimethyl-2-pyridylmethyl)thio]-1H--benzimidazole, reference compound]
ED25 [1]: 12 mg/kg | ED50 [1]: 25 mg/kg | Gastric secretion (rats): % inhibition of HCl secretion [1]: 20% | ED50 [2]: 9 mg/kg

COc1ccc2[nH]c([S+]([O-])Cc3ncc(C)c(OC)c3C)nc2c1 (stereo not drawn) [Serial No. B, 5-methoxy-2-[(4-methoxy-3,5-dimethyl-2-pyridylmethyl)sulfinyl]-1H--benzimidazole, reference compound]
ED25 [1]: 1.9 mg/kg | ED50 [1]: 4.6 mg/kg | Gastric secretion (rats): % inhibition of HCl secretion [1]: 29% | ED50 [2]: 2.2 mg/kg

COc1ccnc(CSc2nc3cc(OCC(F)(F)F)ccc3[nH]2)c1C [Serial No. 11, 2-[(4-methoxy-3-methyl-2-pyridyl)methylthio]-5-(2,2,2-trifluoroethoxy)-1H-benzimidazole]
ED25 [1]: 0.5 mg/kg | ED50 [1]: 0.7 mg/kg | Gastric secretion (rats): % inhibition of HCl secretion [1]: 25% | ED50 [2]: 0.5 mg/kg

COc1ccnc(C[S+]([O-])c2nc3cc(OC(F)(F)C(F)F)ccc3[nH]2)c1C (stereo not drawn) [Serial No. 6, 2-[(4-methoxy-3-methyl-2-pyridyl)methylsulfinyl]-5-(1,1,2,2-tetrafluoroethoxy)-1H-benzimidazole]
ED25 [1]: 0.3 mg/kg | ED50 [1]: 0.7 mg/kg | Gastric secretion (rats): % inhibition of HCl secretion [1]: 35% | ED50 [2]: 0.5 mg/kg

COc1ccnc(CSc2nc3cc(OC(F)(F)C(F)F)ccc3[nH]2)c1C [Serial No. 7, 2-[(4-methoxy-3-methyl-2-pyridyl)methylthio]-5-(1,1,2,2-tetrafluoroethoxy)-1H-benzimidazole]
ED25 [1]: 0.35 mg/kg | ED50 [1]: 0.7 mg/kg | Gastric secretion (rats): % inhibition of HCl secretion [1]: 40% | ED50 [2]: 0.5 mg/kg

COc1ccnc(C[S+]([O-])c2nc3cc(OC(F)F)c(OC(F)F)cc3[nH]2)c1 (stereo not drawn) [Serial No. 13, 5,6-bis(difluoromethoxy)-2-[(4-methoxy-2-pyridyl)methylsulfinyl]-1H-benzimidazole]
ED25 [1]: ~1.1 mg/kg | ED50 [1]: ~1.7 mg/kg | Gastric secretion (rats): % inhibition of HCl secretion [1]: ~ 30% | ED50 [2]: ~1.2 mg/kg

COc1ccnc(C[S+]([O-])c2nc3cc(OC(F)(F)F)ccc3[nH]2)c1 (stereo not drawn) [Serial No. 1, 2-[(4-methoxy-2-pyridyl)methylsulfinyl]-5-trifluoromethoxy-1H-benzimidazole]
ED25 [1]: 0.5 mg/kg | ED50 [1]: 1.1 mg/kg | Gastric secretion (rats): % inhibition of HCl secretion [1]: 32% | ED50 [2]: 0.6 mg/kg

COc1ccc2[nH]c([S+]([O-])Cc3cc(OC)c(C)cn3)nc2c1 (stereo not drawn) [Serial No. D, 5-methoxy-2-[(4-methoxy-5-methyl-2-pyridylmethyl)sulfinyl]-1H--benzimidazole, reference compound]
ED25 [1]: 8 mg/kg | ED50 [1]: 18 mg/kg | Gastric secretion (rats): % inhibition of HCl secretion [1]: 10% | ED50 [2]: ~5 mg/kg

COc1cc2[nH]c([S+]([O-])Cc3nccc(OC)c3C)nc2cc1OC(F)F (stereo not drawn) [Serial No. 16, 5-difluoromethoxy-6-methoxy-2-[(4-methoxy-3-methyl-2-pyridyl)methylsulfinyl]-1H-benzimidazole]
ED50 [1]: ~0.8 mg/kg | ED50 [2]: 0.2 mg/kg

COc1cc(C[S+]([O-])c2nc3cc(OC(F)(F)F)ccc3[nH]2)ncc1C (stereo not drawn) [Serial No. 4, 2-[(4-methoxy-5-methyl-2-pyridyl)methylsulfinyl]-5-trifluoromethoxy-1H-benzimidazole]
ED25 [1]: 0.6 mg/kg | ED50 [1]: 1.6 mg/kg | Gastric secretion (rats): % inhibition of HCl secretion [1]: 32% | ED50 [2]: 0.9 mg/kg

COc1ccc2[nH]c(SCc3cc(OC)c(C)cn3)nc2c1 [Serial No. C, 5-methoxy-2-[(4-methoxy-5-methyl-2-pyridylmethyl)thio]-1H--benzimidazole, reference compound]
ED25 [1]: > 60.6 mg/kg | ED50 [2]: ~30 mg/kg

COc1c(C)cnc(CSc2nc3cc(OC(F)(F)F)ccc3[nH]2)c1C [Serial No. 9, 2-[(4-methoxy-3,5-dimethyl-2-pyridyl)methylthio]-5-trifluoromethoxy-1H-benzimidazole]
ED25 [1]: 1.4 mg/kg | ED50 [1]: 2 mg/kg | Gastric secretion (rats): % inhibition of HCl secretion [1]: 10% | ED50 [2]: 1 mg/kg
